Measurements: patent publication US20260048043A1, “HIGH LOADING ORAL FILM FORMULATION WITH IMPROVED BIOAVAILABILITY” (INTELGENX CORP., priority 2022, published 2026)

Experiment: Compatibility of maropitant with polyacid polymers (precipitate formation)
Assay type: physicochemical
Settings: neutral pH

COc1ccc(C(C)(C)C)cc1CN[C@H]1C2CCN(CC2)[C@H]1C(c1ccccc1)c1ccccc1 [Maropitant, (2S,3S)-(Diphenylmethyl)-N-[2-methoxy-5-(2-methyl-2-propanyl)benzyl]quinuclidin-3-amine]
precipitate formation with polyacid polymer(s) such as CMC, Carbomer and polycarbophil: precipitate was formed
